Measurements taken from US20230085307A1, “PYRIDAZINONE COMPOUND AND HERBICIDE” (NISSAN CHEMICAL CORPORATION, priority 2019, published 2023).

Columns and labels:
[1] = test system: barnyard grass; assay: Test Example 3: herbicidal effect by foliage application, Wagner pot (Table 18, symbol H); assay type: in vivo, barnyard grass (Echinochloa crus-galli); details: 320 g/ha
Method in brief: (§1)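 Plants were sown in alluvial soil held under 0.1–0.5 cm standing water and grown 14 days in a greenhouse at 25–30 °C. An emulsifiable formulation, water-diluted to the set dose, was then sprayed onto the foliage, and effects were scored three weeks later using previously defined criteria.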

[2] = test system: Chinese sprangletop; assay: Test Example 3: herbicidal effect by foliage application, Wagner pot (Table 18, symbol D); assay type: in vivo, chinese sprangletop (Leptochloa chinensis); details: 320 g/ha
Method in brief: as §1

[3] = test system: rice flat sedge; assay: Test Example 3: herbicidal effect by foliage application, Wagner pot (Table 18, symbol E); assay type: in vivo, rice flat sedge (Cyperus iria); details: 320 g/ha
Method in brief: as §1

[4] = test system: southern crabgrass; assay: Test Example 4: herbicidal effect by soil treatment (Table 19, symbol F); assay type: in vivo, southern crabgrass (Digitaria ciliaris)
Method in brief: (§2)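 In this soil treatment, the formulated compound reached the seeds only through the soil: seeds were buried about 1.5 cm deep in sterilized diluvial soil, then the diluted emulsion was sprayed over the surface. After three weeks at 25° C. to 30° C. in a greenhouse, effects were graded on criteria from an earlier test.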

[5] = test system: green foxtail; assay: Test Example 4: herbicidal effect by soil treatment (Table 19, symbol G); assay type: in vivo, green foxtail (Setaria viridis)
Method in brief: as §2

[6] = test system: barnyard grass; assay: Test Example 4: herbicidal effect by soil treatment (Table 19, symbol H); assay type: in vivo, barnyard grass (Echinochloa crus-galli)
Method in brief: as §2

[7] = test system: wild oat; assay: Test Example 4: herbicidal effect by soil treatment (Table 19, symbol I); assay type: in vivo, wild oat (Avena fatua)
Method in brief: as §2

[8] = test system: blackgrass; assay: Test Example 4: herbicidal effect by soil treatment (Table 19, symbol J); assay type: in vivo, blackgrass (Alopecurus myosuroides)
Method in brief: as §2

[9] = test system: Italian ryegrass; assay: Test Example 4: herbicidal effect by soil treatment (Table 19, symbol K); assay type: in vivo, Italian ryegrass (Lolium multiflorum)
Method in brief: as §2

[10] = test system: windgrass; assay: Test Example 4: herbicidal effect by soil treatment (Table 19, symbol L); assay type: in vivo, windgrass (Apera spica-venti)
Method in brief: as §2

[11] = test system: velvetleaf; assay: Test Example 4: herbicidal effect by soil treatment (Table 19, symbol M); assay type: in vivo, velvetleaf (Abutilon theophrasti)
Method in brief: as §2

[12] = test system: redroot pigweed; assay: Test Example 4: herbicidal effect by soil treatment (Table 19, symbol N); assay type: in vivo, redroot pigweed (Amaranthus retroflexus)
Method in brief: as §2

[13] = test system: lambsquarters; assay: Test Example 4: herbicidal effect by soil treatment (Table 19, symbol O); assay type: in vivo, lambsquarters (Chenopodium album)
Method in brief: as §2

[14] = test system: chickweed; assay: Test Example 4: herbicidal effect by soil treatment (Table 19, symbol P); assay type: in vivo, common chickweed (Stellaria media)
Method in brief: as §2

[15] = test system: persian speedwell; assay: Test Example 4: herbicidal effect by soil treatment (Table 19, symbol R); assay type: in vivo, Persian speedwell (Veronica persica)
Method in brief: as §2

[16] = test system: southern crabgrass; assay: Test Example 5: herbicidal effect by foliage application, plastic box (Table 20, symbol F); assay type: in vivo, southern crabgrass (Digitaria ciliaris); details: foliage application, 320 g/ha
Method in brief: (§3)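 Plants were sown into sterilized diluvial soil under about 1.5 cm cover and kept in a greenhouse at 25° C. to 30° C. Fourteen days on, foliage received an even spray of the diluted emulsion. Herbicidal or crop effect was judged three weeks afterwards.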

[17] = test system: green foxtail; assay: Test Example 5: herbicidal effect by foliage application, plastic box (Table 20, symbol G); assay type: in vivo, green foxtail (Setaria viridis); details: foliage application, 320 g/ha
Method in brief: as §3

[18] = test system: barnyard grass; assay: Test Example 5: herbicidal effect by foliage application, plastic box (Table 20, symbol H); assay type: in vivo, barnyard grass (Echinochloa crus-galli); details: foliage application, 320 g/ha
Method in brief: as §3

[19] = test system: wild oat; assay: Test Example 5: herbicidal effect by foliage application, plastic box (Table 20, symbol I); assay type: in vivo, wild oat (Avena fatua); details: foliage application, 320 g/ha
Method in brief: as §3

[20] = test system: blackgrass; assay: Test Example 5: herbicidal effect by foliage application, plastic box (Table 20, symbol J); assay type: in vivo, blackgrass (Alopecurus myosuroides); details: foliage application, 320 g/ha
Method in brief: as §3

[21] = test system: Italian ryegrass; assay: Test Example 5: herbicidal effect by foliage application, plastic box (Table 20, symbol K); assay type: in vivo, Italian ryegrass (Lolium multiflorum); details: foliage application, 320 g/ha
Method in brief: as §3

[22] = test system: windgrass; assay: Test Example 5: herbicidal effect by foliage application, plastic box (Table 20, symbol L); assay type: in vivo, windgrass (Apera spica-venti); details: foliage application, 320 g/ha
Method in brief: as §3

[23] = test system: velvetleaf; assay: Test Example 5: herbicidal effect by foliage application, plastic box (Table 20, symbol M); assay type: in vivo, velvetleaf (Abutilon theophrasti); details: foliage application, 320 g/ha
Method in brief: as §3

[24] = test system: lambsquarters; assay: Test Example 5: herbicidal effect by foliage application, plastic box (Table 20, symbol O); assay type: in vivo, lambsquarters (Chenopodium album); details: foliage application, 320 g/ha
Method in brief: as §3

[25] = test system: persian speedwell; assay: Test Example 5: herbicidal effect by foliage application, plastic box (Table 20, symbol R); assay type: in vivo, Persian speedwell (Veronica persica); details: foliage application, 320 g/ha
Method in brief: as §3

[26] = amount of applied herbicide 320 g/ha

Compound: Cc1nn(C)c(=O)c(-c2c(-c3ccc(F)cc3)sc3ccc(F)cc23)c1OS(=O)(=O)N(C)C [2-009]
- herbicidal effect on H (barnyard grass), rating 0-5 [1]: 5 (Herbicidal rate of 90% or more (almost completely withered))
- herbicidal effect on D (Chinese sprangletop), rating 0-5 [2]: 3 (Herbicidal rate of 40% or more and less than 70%)
- herbicidal effect on E (rice flat sedge), rating 0-5 [3]: 4 (Herbicidal rate of 70% or more and less than 90%)
- herbicidal effect rating, F: southern crabgrass ([4]; 320 g/ha): 1 (Herbicidal rate of 5% or more and less than 20%)
- herbicidal effect rating, G: green foxtail ([5]; 320 g/ha): 3 (Herbicidal rate of 40% or more and less than 70%)
- herbicidal effect rating, H: barnyard grass ([6]; 320 g/ha): 0 (Herbicidal rate of 5% or less (almost no effect))
- herbicidal effect rating, I: wild oat ([7]; 320 g/ha): 0 (Herbicidal rate of 5% or less (almost no effect))
- herbicidal effect rating, J: blackgrass ([8]; 320 g/ha): 0 (Herbicidal rate of 5% or less (almost no effect))
- herbicidal effect rating, K: Italian ryegrass ([9]; 320 g/ha): 4 (Herbicidal rate of 70% or more and less than 90%)
- herbicidal effect rating, L: windgrass ([10]; 320 g/ha): 0 (Herbicidal rate of 5% or less (almost no effect))
- herbicidal effect rating, M: velvetleaf ([11]; 320 g/ha): 2 (Herbicidal rate of 20% or more and less than 40%)
- herbicidal effect rating, N: redroot pigweed ([12]; 320 g/ha): 5 (Herbicidal rate of 90% or more (almost completely withered))
- herbicidal effect rating, O: lambsquarters ([13]; 320 g/ha): 3 (Herbicidal rate of 40% or more and less than 70%)
- herbicidal effect rating, P: chickweed ([14]; 320 g/ha): 4 (Herbicidal rate of 70% or more and less than 90%)
- herbicidal effect rating, R: persian speedwell ([15]; 320 g/ha): 3 (Herbicidal rate of 40% or more and less than 70%)
- effect on southern crabgrass (F) ([16]; 3 weeks after application): 5 (Herbicidal rate of 90% or more (almost completely withered))
- effect on green foxtail (G) ([17]; 3 weeks after application): 5 (Herbicidal rate of 90% or more (almost completely withered))
- effect on barnyard grass (H) ([18]; 3 weeks after application): 4 (Herbicidal rate of 70% or more and less than 90%)
- effect on wild oat (I) ([19]; 3 weeks after application): 0 (Herbicidal rate of 5% or less (almost no effect))
- effect on blackgrass (J) ([20]; 3 weeks after application): 0 (Herbicidal rate of 5% or less (almost no effect))
- effect on Italian ryegrass (K) ([21]; 3 weeks after application): 4 (Herbicidal rate of 70% or more and less than 90%)
- effect on windgrass (L) ([22]; 3 weeks after application): 0 (Herbicidal rate of 5% or less (almost no effect))
- effect on velvetleaf (M) ([23]; 3 weeks after application): 4 (Herbicidal rate of 70% or more and less than 90%)
- effect on lambsquarters (O) ([24]; 3 weeks after application): 3 (Herbicidal rate of 40% or more and less than 70%)
- effect on persian speedwell (R) ([25]; 3 weeks after application): 5 (Herbicidal rate of 90% or more (almost completely withered))

Compound: CCCC(=O)Oc1c(C)nn(C)c(=O)c1-c1c(-c2ccc(F)cc2OCC)sc2cc(Cl)c(Cl)cc12 [5-054]
- herbicidal effect on barnyard grass (H) [1]: 4 (Herbicidal rate of 70% or more and less than 90%)
- herbicidal effect on Chinese sprangletop (D) [2]: 2 (Herbicidal rate of 20% or more and less than 40%)
- herbicidal effect on rice flat sedge (E) [3]: 5 (Herbicidal rate of 90% or more (almost completely withered))
- F: southern crabgrass, herbicidal effect grade [4, 26]: 0 (Herbicidal rate of 5% or less (almost no effect))
- G: green foxtail, herbicidal effect grade [5, 26]: 0 (Herbicidal rate of 5% or less (almost no effect))
- H: barnyard grass, herbicidal effect grade [6, 26]: 0 (Herbicidal rate of 5% or less (almost no effect))
- I: wild oat, herbicidal effect grade [7, 26]: 0 (Herbicidal rate of 5% or less (almost no effect))
- J: blackgrass, herbicidal effect grade [8, 26]: 0 (Herbicidal rate of 5% or less (almost no effect))
- K: Italian ryegrass, herbicidal effect grade [9, 26]: 0 (Herbicidal rate of 5% or less (almost no effect))
- L: windgrass, herbicidal effect grade [10, 26]: 0 (Herbicidal rate of 5% or less (almost no effect))
- M: velvetleaf, herbicidal effect grade [11, 26]: 0 (Herbicidal rate of 5% or less (almost no effect))
- N: redroot pigweed, herbicidal effect grade [12, 26]: 0 (Herbicidal rate of 5% or less (almost no effect))
- O: lambsquarters, herbicidal effect grade [13, 26]: 0 (Herbicidal rate of 5% or less (almost no effect))
- P: chickweed, herbicidal effect grade [14, 26]: 2 (Herbicidal rate of 20% or more and less than 40%)
- R: persian speedwell, herbicidal effect grade [15, 26]: 0 (Herbicidal rate of 5% or less (almost no effect))
- herbicidal effect on southern crabgrass (F) ([16]; three weeks after application): 2 (Herbicidal rate of 20% or more and less than 40%)
- herbicidal effect on green foxtail (G) ([17]; three weeks after application): 2 (Herbicidal rate of 20% or more and less than 40%)
- herbicidal effect on barnyard grass (H) ([18]; three weeks after application): 4 (Herbicidal rate of 70% or more and less than 90%)
- herbicidal effect on wild oat (I) ([19]; three weeks after application): 0 (Herbicidal rate of 5% or less (almost no effect))
- herbicidal effect on blackgrass (J) ([20]; three weeks after application): 0 (Herbicidal rate of 5% or less (almost no effect))
- herbicidal effect on Italian ryegrass (K) ([21]; three weeks after application): 0 (Herbicidal rate of 5% or less (almost no effect))
- herbicidal effect on windgrass (L) ([22]; three weeks after application): 1 (Herbicidal rate of 5% or more and less than 20%)
- herbicidal effect on velvetleaf (M) ([23]; three weeks after application): 4 (Herbicidal rate of 70% or more and less than 90%)
- herbicidal effect on lambsquarters (O) ([24]; three weeks after application): 3 (Herbicidal rate of 40% or more and less than 70%)
- herbicidal effect on persian speedwell (R) ([25]; three weeks after application): 4 (Herbicidal rate of 70% or more and less than 90%)
